The target in one experiment is T1, hAMY1R (Homo sapiens, UniProt O60894+P30988).
T1 construct: expressed in transfected cells
The experiment can be described thus: hAMY1R cAMP functional activity (HTRF). Format: cell-based. As to conditions: ±SE; UMUC3 cells overexpressing hAMY1R; relative EC50. As to the method:
(§1) The AMY1 and CT receptors are GPCRs that are functionally coupled to Gas proteins. […] In vitro activity of peptides is measured by the amount of cAMP formed in human AMY1R and CTR overexpressed cells.
Human AMY1R stable cell lines are generated by further transfecting human RAMP1-pCMVpuroPB (T14213) into UMUC3 hCTR clone cells. After selection, the mRNA levels human RAMP1 from different clones are measured to confirm the expression of human AMY1R.
(§2) hAMY1R cells are cultured in MEM 1× (Corning) supplemented with 10% FBS, 1% antibiotic/antimycotic solution, 1 mM sodium pyruvate, 1×MEM NEAA, 1× GlutaMAX-I, 200 μg/mL hygromycin B, and 0.4 μg/mL puromycin. The hCTR cells are cultured in the same medium lacking the puromycin. Cultured cells are grown to 70% confluency and then incubated overnight with fresh medium.
(§3) Peptides diluted in DMSO are added (200 nL/well) in a 1:3 dilution series using ECHO acoustic liquid handler (Beckman). Cultured cells are detached with TrypLE Express (Gibco), resuspended in assay buffer, and 10 μL containing 1200 cells/well (hCTR) or 1500 cells/well (hAMY1R) are dispensed into each well. The plates are incubated at room temperature for 1 hour.
(§4) The amount of intracellular cAMP is quantitated using HTRF technology (Homogeneous Time Resolved Fluorescence; Cisbio) as per vendor instructions. Briefly, 10 μL cAMP-d2 conjugate and 10 μL anti-cAMP-cryptate conjugate in lysis buffer are incubated with the treated cells at room temperature for 60 min. […] The raw data are converted to cAMP amount (pmol/well) using a cAMP standard curve generated for each experiment.
(In general: In TR-FRET formats the signal depends on donor and acceptor labels being close together.)

The next experiment concerns the target T2, human CT receptors (Homo sapiens, UniProt P30988).
T2 construct: expressed in transfected cells
T2 sequence (P30988 25-474): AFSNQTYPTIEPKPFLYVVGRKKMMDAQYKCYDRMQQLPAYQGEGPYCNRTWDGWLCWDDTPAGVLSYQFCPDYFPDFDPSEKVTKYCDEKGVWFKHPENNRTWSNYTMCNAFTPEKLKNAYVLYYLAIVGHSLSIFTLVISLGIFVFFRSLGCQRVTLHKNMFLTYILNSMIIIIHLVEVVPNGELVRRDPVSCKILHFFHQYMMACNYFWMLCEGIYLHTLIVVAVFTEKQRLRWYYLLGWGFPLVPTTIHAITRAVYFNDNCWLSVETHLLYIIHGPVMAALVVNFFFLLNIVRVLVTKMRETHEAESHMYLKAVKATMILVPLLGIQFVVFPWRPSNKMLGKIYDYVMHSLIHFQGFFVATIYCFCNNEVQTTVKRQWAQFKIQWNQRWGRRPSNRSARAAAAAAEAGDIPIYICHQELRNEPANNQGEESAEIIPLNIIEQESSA
The experiment can be described thus: hCTR cAMP functional activity (HTRF). Format: cell-based. Particulars: ±SE; UMUC3 cells overexpressing hCTR; relative EC50. On the procedure:
as §1
Human CT receptors are stably expressed in human urinary bladder cells (UM-UC-3, or UMUC3) under control of a pcDNA expression vector. […] After 20 days under selection, the mRNA levels from different clones are measured to confirm the expression of hCTR. To determine the function of over-expressed hCTR cells, the intracellular cAMP levels in response to salmon calcitonin are measured and compared to the expression of hCTR mRNA in each clone.
as §2, §3, §4

Starred links: 1 amine or outer side, 2 acyl side, 3 side chain; linkers in the order of their positions; H or OH if unused. Positions of bridges follow the written chain, without caps; N, C: chain ends. Non-standard residues stand in square brackets, D forms with d. Residues, ends and D or L forms follow the SMILES beside them. Groups on a side chain read outwards from the residue. *: point of attachment. C20 diacid = O=C(O)CCCCCCCCCCCCCCCCCCC(=O)*; γGlu = O=C(O)[C@H](CCC(=O)[*:2])N[*:1]; αMeF = C[C@](N)(Cc1ccccc1)C(=O)O; NMeD = CN[C@@H](CC(=O)O)C(=O)O; αMeL = CC(C)C[C@](C)(N)C(=O)O; Orn = NCCC[C@H](N)C(=O)O; AEEA = NCCOCCOCC(=O)O; CH2 = C([*:1])[*:2]

T1 sequence (O60894 27-148 partner, one chain of several): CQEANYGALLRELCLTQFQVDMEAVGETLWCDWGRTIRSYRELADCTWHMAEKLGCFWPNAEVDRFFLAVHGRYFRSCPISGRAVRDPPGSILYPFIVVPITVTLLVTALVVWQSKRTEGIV

Consider `CC(C)C[C@H](NC(=O)[C@H](CCCCN)NC(=O)CNC(=O)[C@@H](NC(=O)[C@H](C)NC(=O)[C@@H]1CSCSC[C@H](NC(=O)CC[C@H](N)C(=O)O)C(=O)N[C@@H](CC(N)=O)C(=O)N[C@@H]([C@@H](C)O)C(=O)N[C@@H](C)C(=O)N[C@@H]([C@@H](C)O)C(=O)N1)[C@@H](C)O)C(=O)N[C@@H](C)C(=O)N[C@@H](CCC(=O)O)C(=O)N[C@@H](Cc1ccccc1)C(=O)N[C@@H](CC(C)C)C(=O)N[C@H](C(=O)N[C@@H](CCCNC(=N)N)C(=O)N[C@@H](CO)C(=O)N[C@@H](CO)C(=O)N[C@@H](CC(N)=O)C(=O)N[C@@H](CC(N)=O)C(=O)N[C@@H](Cc1ccccc1)C(=O)NCC(=O)N1CCC[C@H]1C(=O)N[C@@H](CCCCNC(=O)CC[C@H](NC(=O)CC[C@H](NC(=O)COCCOCCNC(=O)CCCCCCCCCCCCCCCCCCC(=O)O)C(=O)O)C(=O)O)C(=O)N[C@@H](CC(C)C)C(=O)N1CCC[C@H]1C(=O)N1CCC[C@H]1C(=O)N[C@H](C(=O)N[C@@H](CCC(=O)O)C(=O)N[C@H](C(=O)NCC(=O)N[C@@H](CO)C(=O)N[C@@H](CC(N)=O)C(=O)N[C@H](C(=O)N[C@@H](Cc1ccc(O)cc1)C(N)=O)[C@@H](C)O)C(C)C)[C@@H](C)O)C(C)C` [Compound XI] (γGlu-CNTATCATGKLAEFLVRSSNNFGPK([γGlu-γGlu-AEEA-C20 diacid])LPPTEVGSNTY-NH2; linker 1-6 via CH2), for which the EC50 is 0.038 ± 0.0078 nM on hAMY1R and 10.5 ± 2.2 nM at human CT receptors.

With `CC[C@H](C)[C@H](NC(=O)[C@@H]1CCCN1C(=O)CNC(=O)[C@H](Cc1ccccc1)NC(=O)[C@H](CC(N)=O)NC(=O)[C@H](Cc1c[nH]cn1)NC(=O)[C@H](CO)NC(=O)[C@H](CO)NC(=O)[C@H](CCCNC(=N)N)NC(=O)[C@@H](NC(=O)[C@H](CC(C)C)NC(=O)[C@H](Cc1ccccc1)NC(=O)[C@H](CCC(=O)O)NC(=O)[C@H](C)NC(=O)[C@](C)(CC(C)C)NC(=O)[C@H](CCCN)NC(=O)CNC(=O)[C@@H](NC(=O)[C@H](C)NC(=O)[C@@H]1CSCSC[C@H](NC(=O)[C@@H](N)CCCCN)C(=O)N[C@@H](CCC(=O)O)C(=O)N[C@@H]([C@@H](C)O)C(=O)N[C@@H](C)C(=O)N[C@@H]([C@@H](C)O)C(=O)N1)[C@@H](C)O)C(C)C)C(=O)N[C@@H](CC(C)C)C(=O)N1CCC[C@H]1C(=O)N1CCC[C@H]1C(=O)N[C@H](C(=O)N[C@@H](CCC(=O)O)C(=O)N[C@H](C(=O)NCC(=O)N[C@@H](CO)C(=O)N[C@@H](CC(N)=O)C(=O)N[C@H](C(=O)N[C@@H](Cc1ccc(O)cc1)C(N)=O)[C@@H](C)O)C(C)C)[C@@H](C)O` [Compound VII] (H-KCETATCATG[Orn][αMeL]AEFLVRSSHNFGPILPPTEVGSNTY-NH2; linker 2-7 via CH2), the results for the EC50 on hAMY1R and on human CT receptors were 0.173 ± 0.034 nM and 11.9 ± 1.53 nM, respectively.

For `CC(C)C[C@H](NC(=O)[C@H](CCCCN)NC(=O)CNC(=O)[C@@H](NC(=O)[C@H](C)NC(=O)[C@@H]1CSCSC[C@H](NC(=O)CC[C@H](N)C(=O)O)C(=O)N[C@@H](CC(N)=O)C(=O)N[C@@H]([C@@H](C)O)C(=O)N[C@@H](C)C(=O)N[C@@H]([C@@H](C)O)C(=O)N1)[C@@H](C)O)C(=O)N[C@@H](C)C(=O)N[C@@H](CCC(=O)O)C(=O)N[C@@H](Cc1ccccc1)C(=O)N[C@@H](CC(C)C)C(=O)N[C@H](C(=O)N[C@@H](CCCNC(=N)N)C(=O)N[C@@H](CO)C(=O)N[C@@H](CO)C(=O)N[C@@H](CC(N)=O)C(=O)N[C@@H](CC(N)=O)C(=O)N[C@@H](Cc1ccccc1)C(=O)NCC(=O)N1CCC[C@H]1C(=O)N[C@@H](CCCCNC(=O)CC[C@H](NC(=O)COCCOCCNC(=O)COCCOCCNC(=O)CCCCCCCCCCCCCCCCCCC(=O)O)C(=O)O)C(=O)N[C@@H](CC(C)C)C(=O)N1CCC[C@H]1C(=O)N1CCC[C@H]1C(=O)N[C@H](C(=O)N[C@@H](CCC(=O)O)C(=O)N[C@H](C(=O)NCC(=O)N[C@@H](CO)C(=O)N[C@@H](CC(N)=O)C(=O)N[C@H](C(=O)N[C@@H](Cc1ccc(O)cc1)C(N)=O)[C@@H](C)O)C(C)C)[C@@H](C)O)C(C)C` [Compound X] (γGlu-CNTATCATGKLAEFLVRSSNNFGPK([γGlu-AEEA-AEEA-C20 diacid])LPPTEVGSNTY-NH2; linker 1-6 via CH2), the EC50 on hAMY1R amounted to 0.08 ± 0.013 nM; on human CT receptors it was 14 ± 3.32 nM.

Regarding `CC[C@H](C)[C@H](NC(=O)[C@@H]1CCCN1C(=O)CNC(=O)[C@H](Cc1ccccc1)NC(=O)[C@H](CC(=O)O)N(C)C(=O)[C@H](CC(N)=O)NC(=O)[C@H](CO)NC(=O)[C@H](CO)NC(=O)[C@H](CCCNC(=N)N)NC(=O)[C@@H](NC(=O)[C@H](CC(C)C)NC(=O)[C@](C)(Cc1ccccc1)NC(=O)[C@H](CCC(=O)O)NC(=O)[C@H](C)NC(=O)[C@H](CC(C)C)NC(=O)[C@H](CCCN)NC(=O)CNC(=O)[C@@H](NC(=O)[C@H](C)NC(=O)[C@@H]1CSCSC[C@H](NC(=O)[C@@H](N)CCCCN)C(=O)N[C@@H](CCC(=O)O)C(=O)N[C@@H]([C@@H](C)O)C(=O)N[C@@H](C)C(=O)N[C@@H]([C@@H](C)O)C(=O)N1)[C@@H](C)O)C(C)C)C(=O)N[C@@H](CC(C)C)C(=O)N1CCC[C@H]1C(=O)N1CCC[C@H]1C(=O)N[C@H](C(=O)N[C@@H](CCC(=O)O)C(=O)N[C@H](C(=O)NCC(=O)N[C@@H](CO)C(=O)N[C@@H](CC(N)=O)C(=O)N[C@H](C(=O)N[C@@H](Cc1ccc(O)cc1)C(N)=O)[C@@H](C)O)C(C)C)[C@@H](C)O` [Compound V, KCETATCATG-Orn-LAE-αMeF-LVRSSN-NMeD-FGPILPPTEVGSNTY-NH2] (H-KCETATCATG[Orn]LAE[αMeF]LVRSSN[NMeD]FGPILPPTEVGSNTY-NH2; linker 2-7 via CH2), the values for the EC50 on hAMY1R and at human CT receptors were 0.139 ± 0.017 nM and 17 ± 2.44 nM, respectively.

By EC50 is commonly meant the concentration at which the effect is half-maximal. Low values mean an effect from little substance, high ones a need for much substance.

Source of the values: patent US12551532B2, “Long-acting amylin receptor agonists and uses thereof” (Eli Lilly and Company, priority 2021, dated 2026).
